According to BindingDB's records for patent US20240252496 (The Children’s Medical Center, 2024):

How the values were obtained:
Assay in all cases: Conditioned place preference (CPP) assay
[1] = target: Histone deacetylase 1 (Homo sapiens, UniProt Q13547)
[2] = target: Histone deacetylase 2 (Homo sapiens, UniProt Q92769)
[3] = target: Histone deacetylase 3 (Homo sapiens, UniProt O15379)
Histone deacetylase 3, sequence (O15379 whole entry): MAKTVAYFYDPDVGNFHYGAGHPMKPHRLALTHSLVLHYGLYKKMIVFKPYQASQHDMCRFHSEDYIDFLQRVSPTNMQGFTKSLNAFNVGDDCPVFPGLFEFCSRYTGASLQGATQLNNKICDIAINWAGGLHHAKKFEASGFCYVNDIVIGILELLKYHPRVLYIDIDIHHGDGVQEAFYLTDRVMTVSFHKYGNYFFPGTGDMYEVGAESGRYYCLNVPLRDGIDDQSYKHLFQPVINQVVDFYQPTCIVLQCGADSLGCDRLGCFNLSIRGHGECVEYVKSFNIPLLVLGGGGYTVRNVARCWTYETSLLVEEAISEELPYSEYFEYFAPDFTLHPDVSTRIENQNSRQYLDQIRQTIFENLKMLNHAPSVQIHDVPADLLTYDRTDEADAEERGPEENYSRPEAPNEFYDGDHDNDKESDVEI

Histone deacetylase 1, sequence (Q13547 whole entry): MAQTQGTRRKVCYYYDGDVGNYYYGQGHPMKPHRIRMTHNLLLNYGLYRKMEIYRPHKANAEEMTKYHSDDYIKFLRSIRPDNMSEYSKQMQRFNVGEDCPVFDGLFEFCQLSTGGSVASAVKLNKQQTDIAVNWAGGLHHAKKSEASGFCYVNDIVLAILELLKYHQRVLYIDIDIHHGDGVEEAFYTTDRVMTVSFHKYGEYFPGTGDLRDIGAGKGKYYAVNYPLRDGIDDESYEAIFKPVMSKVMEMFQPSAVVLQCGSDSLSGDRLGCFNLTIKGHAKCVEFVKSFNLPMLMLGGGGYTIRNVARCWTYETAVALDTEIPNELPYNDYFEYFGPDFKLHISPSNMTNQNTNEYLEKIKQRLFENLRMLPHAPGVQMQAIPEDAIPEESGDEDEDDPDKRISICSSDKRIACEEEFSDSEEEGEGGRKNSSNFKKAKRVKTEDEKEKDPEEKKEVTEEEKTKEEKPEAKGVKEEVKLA
Histone deacetylase 2, sequence (Q92769 whole entry): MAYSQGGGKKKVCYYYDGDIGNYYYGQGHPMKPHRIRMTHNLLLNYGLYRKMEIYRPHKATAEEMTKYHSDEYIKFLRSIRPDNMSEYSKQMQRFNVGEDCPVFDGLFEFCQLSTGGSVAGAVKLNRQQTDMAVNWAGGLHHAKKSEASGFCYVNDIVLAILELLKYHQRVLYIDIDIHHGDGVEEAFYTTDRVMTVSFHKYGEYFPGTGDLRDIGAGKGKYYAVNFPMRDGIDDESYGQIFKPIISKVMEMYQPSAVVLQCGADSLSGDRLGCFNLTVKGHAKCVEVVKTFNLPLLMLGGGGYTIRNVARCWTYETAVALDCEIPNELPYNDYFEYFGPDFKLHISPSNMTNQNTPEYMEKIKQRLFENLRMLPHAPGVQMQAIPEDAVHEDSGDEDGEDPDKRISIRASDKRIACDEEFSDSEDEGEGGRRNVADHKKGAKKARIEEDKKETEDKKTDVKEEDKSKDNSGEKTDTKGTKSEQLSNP

IC50 [1]: 268 nM
IC50 [2]: 530 nM
IC50 [3]: 850 nM
SMILES: COC(c1ccc(F)cc1)(c1ccc(F)cc1)c1ccc(C(=O)NCCCCCCC(=O)NO)cc1 [US20240252496, Example ACY-257]
